Two molecules from PubChem BioAssay AID2060905 (Molecular Pharmacology Branch, DTP, NCI, 2025) can be followed below.

The test system of the assay is 282377-053-R-J1-PDC complex spheroid viability. The experiment in a line: Anticancer human tumor 282377-053-R-J1-PDC patient-derived colon adenocarcinoma cell line growth inhibition [RAS]. The settings on record: for viability, T/C: stronger effect = lower value. The gist of the method: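 Agents were tested in combination matrices in half-log decrements from a top concentration at or near clinical Cmax (10 microM if undetermined). Targets were multi-cell spheroids of tumour lines plus HUVEC and MSC stromal cells.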

As a reminder, the viability, T/C is the ratio of treated to control. In general, IC50 refers to the concentration that gives 50% inhibition.
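Also: spheroids exposed to agents for seven days before readout.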
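For viability, T/C in this document: luminescence viability as percent of DMSO vehicle control wells.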

Turning to `C#Cc1c(F)ccc2cc(O)cc(-c3ncc4c(N5CC6CCC(C5)N6)nc(OCC56CCCN5CC(F)C6)nc4c3F)c12` (configuration not stated), the viability, T/C (compound 0.1 µM) is 104% [middle of 8 runs]; the viability, T/C (compound 0.316 µM) is 102% [middle of 8 runs]; the viability, T/C (compound 3.16 µM) is 111% [middle of 8 runs]; the viability, T/C (compound 10 µM) is 104% [middle of 8 runs]. Further, for the setting “compound alone, run of 06/10/2024”, the IC50 is more than 10000 nM.
As to `C=CC(=O)Nc1cc(Nc2nccc(-c3cn(C)c4ccccc34)n2)c(OC)cc1N(C)CCN(C)C` + C=CC(=O)N1CCN(c2nc(OCC3CCCN3C)nc3c(F)c(-c4nc(N)cc(C)c4C(F)(F)F)c(Cl)cc23)C(C)C1, the IC50 is more than 1000 nM (curve of first compound, second compound 0.00316 µM); more than 1000 nM (curve of first compound, second compound 0.01 µM); more than 1000 nM (curve of first compound, second compound 0.0316 µM); more than 1000 nM (curve of first compound, second compound 0.1 µM); more than 1000 nM (curve of first compound, second compound 0.316 µM); more than 1000 nM (curve of first compound, second compound 1 µM). Also, the viability, T/C is 126% (second compound 0.00316 µM, first compound 0.00316 µM); 113% (second compound 0.00316 µM, first compound 0.01 µM); 124% (second compound 0.00316 µM, first compound 0.0316 µM); 102% (second compound 0.00316 µM, first compound 0.1 µM); 112% (second compound 0.00316 µM, first compound 0.316 µM); 114% (second compound 0.00316 µM, first compound 1 µM). Also, the viability, T/C is 123% (second compound 0.01 µM, first compound 0.00316 µM); 111% (second compound 0.01 µM, first compound 0.01 µM); 100% (second compound 0.01 µM, first compound 0.0316 µM); 106% (second compound 0.01 µM, first compound 0.1 µM); 109% (second compound 0.01 µM, first compound 0.316 µM); 100% (second compound 0.01 µM, first compound 1 µM). Further, the viability, T/C by setting is: (second compound 0.0316 µM, first compound 0.00316 µM) 112%; (second compound 0.0316 µM, first compound 0.01 µM) 112%; (second compound 0.0316 µM, first compound 0.0316 µM) 100%; (second compound 0.0316 µM, first compound 0.1 µM) 124%; (second compound 0.0316 µM, first compound 0.316 µM) 114%; (second compound 0.0316 µM, first compound 1 µM) 96.3%. For the same molecule, the viability, T/C is 118% (second compound 0.1 µM, first compound 0.00316 µM); 107% (second compound 0.1 µM, first compound 0.01 µM); 136% (second compound 0.1 µM, first compound 0.0316 µM); 113% (second compound 0.1 µM, first compound 0.1 µM); 94.7% (second compound 0.1 µM, first compound 0.316 µM); 120% (second compound 0.1 µM, first compound 1 µM). The viability, T/C runs as follows: (second compound 0.316 µM, first compound 0.00316 µM) 122%; (second compound 0.316 µM, first compound 0.01 µM) 107%; (second compound 0.316 µM, first compound 0.0316 µM) 110%; (second compound 0.316 µM, first compound 0.1 µM) 105%; (second compound 0.316 µM, first compound 0.316 µM) 121%; (second compound 0.316 µM, first compound 1 µM) 122%. Further, the viability, T/C was 139% (second compound 1 µM, first compound 0.00316 µM); 116% (second compound 1 µM, first compound 0.01 µM); 114% (second compound 1 µM, first compound 0.0316 µM); 118% (second compound 1 µM, first compound 0.1 µM); 121% (second compound 1 µM, first compound 0.316 µM); 137% (second compound 1 µM, first compound 1 µM).
